Measurements as given in PMC4051630, “A Comparison of Protein Kinases Inhibitor Screening Methods Using Both Enzymatic Activity and Binding Affinity Determination” (PLoS ONE, 2014).

How the values were obtained:
Assay in all cases: Differential Scanning Fluorimetry (DSF) Tm shift
Format in all cases: binding
AKT3 Catalytic Domain = target: T1, AKT3 Catalytic Domain (Homo sapiens, UniProt Q9Y243); settings: 2 µM protein, 10 µM inhibitor, average of 3 experiments, each in duplicate
T1 construct: AKT3 (Q9Y243); CD; His-tag; made in house; host or cells: Escherichia coli

CDK2 + Cyclin A = target: T2, CDK2 + Cyclin A (Homo sapiens, UniProt P24941); settings: CDK2 + Cyclin A; 2 µM protein, 10 µM inhibitor; average of 3 experiments, each in duplicate
T2 construct: CDK2 (P24941); 1–299; His-tag; made in house; host or cells: Escherichia coli

CDK2 + Cyclin E = target: T3, CDK2 + Cyclin E (Homo sapiens, UniProt P24941); settings: CDK2 + Cyclin E; 2 µM protein, 10 µM inhibitor; average of 3 experiments, each in duplicate
T3 construct: CDK2 (P24941); 1–299; His-tag; made in house; host or cells: Escherichia coli

CHK2 Catalytic Domain = target: T4, CHK2 Catalytic Domain (Homo sapiens, UniProt O96017); settings: 2 µM protein, 10 µM inhibitor, average of 3 experiments, each in duplicate
T4 construct: For all of them, we expressed and purified the catalytic domain separately; His-tag; made in house; host or cells: Escherichia coli

DMPK Catalytic Domain = target: T5, DMPK Catalytic Domain (Homo sapiens, UniProt Q09013); settings: 2 µM protein, 10 µM inhibitor, average of 3 experiments, each in duplicate
T5 construct: For all of them, we expressed and purified the catalytic domain separately; His-tag; made in house; host or cells: Escherichia coli
T5 sequence (Q09013 71-339 limits assumed): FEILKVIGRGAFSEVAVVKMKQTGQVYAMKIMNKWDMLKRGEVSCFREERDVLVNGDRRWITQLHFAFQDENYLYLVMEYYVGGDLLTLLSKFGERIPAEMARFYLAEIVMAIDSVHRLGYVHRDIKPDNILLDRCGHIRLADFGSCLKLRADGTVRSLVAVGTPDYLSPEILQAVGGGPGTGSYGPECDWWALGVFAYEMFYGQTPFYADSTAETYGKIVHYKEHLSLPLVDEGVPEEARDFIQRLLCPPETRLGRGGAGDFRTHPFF

FAK2 Catalytic Domain = target: T6, FAK2 Catalytic Domain (Homo sapiens, UniProt Q14289); settings: 2 µM protein, 10 µM inhibitor, average of 3 experiments, each in duplicate
T6 construct: For all of them, we expressed and purified the catalytic domain separately; His-tag; made in house; host or cells: Escherichia coli

FES Catalytic Domain+SH2 = target: T7, FES Catalytic Domain+SH2 (Homo sapiens, UniProt P07332); settings: 2 µM protein, 10 µM inhibitor, average of 3 experiments, each in duplicate
T7 construct: for 8, we also made a longer version containing one or more additional domains; His-tag; made in house; host or cells: Escherichia coli

FES Catalytic Domain = target: T8, FES Catalytic Domain (Homo sapiens, UniProt P07332); settings: 2 µM protein, 10 µM inhibitor, average of 3 experiments, each in duplicate
T8 construct: For all of them, we expressed and purified the catalytic domain separately; His-tag; made in house; host or cells: Escherichia coli

PAK4 Catalytic Domain = target: T9, PAK4 Catalytic Domain (Homo sapiens, UniProt O96013); settings: 2 µM protein, 10 µM inhibitor, average of 3 experiments, each in duplicate
T9 construct: For all of them, we expressed and purified the catalytic domain separately; His-tag; made in house; host or cells: Escherichia coli

PAK7 Catalytic Domain = target: T10, PAK7 Catalytic Domain (Homo sapiens, UniProt Q9P286); settings: 2 µM protein, 10 µM inhibitor, average of 3 experiments, each in duplicate
T10 construct: For all of them, we expressed and purified the catalytic domain separately; His-tag; made in house; host or cells: Escherichia coli

[1] = target: T11, STK3 Catalytic domain+SARAH (Homo sapiens, UniProt Q13188); settings: 2 µM protein, 10 µM inhibitor, average of 3 experiments, each in duplicate
T11 construct: for 8, we also made a longer version containing one or more additional domains; His-tag; made in house; host or cells: Escherichia coli
T11 sequence (Q13188 1-491): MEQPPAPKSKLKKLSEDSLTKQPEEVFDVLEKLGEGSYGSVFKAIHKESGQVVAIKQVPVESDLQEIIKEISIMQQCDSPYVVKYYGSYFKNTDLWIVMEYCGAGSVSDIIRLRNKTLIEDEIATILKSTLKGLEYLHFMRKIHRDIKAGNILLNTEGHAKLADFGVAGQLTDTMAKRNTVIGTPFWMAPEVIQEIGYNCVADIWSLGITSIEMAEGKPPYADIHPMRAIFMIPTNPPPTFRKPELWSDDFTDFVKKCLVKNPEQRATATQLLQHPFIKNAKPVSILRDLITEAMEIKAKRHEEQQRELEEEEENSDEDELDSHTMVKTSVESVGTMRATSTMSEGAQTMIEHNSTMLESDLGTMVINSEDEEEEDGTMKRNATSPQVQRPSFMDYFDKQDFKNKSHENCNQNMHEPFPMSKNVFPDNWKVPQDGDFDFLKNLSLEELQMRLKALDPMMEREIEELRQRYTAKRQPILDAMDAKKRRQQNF

STK3 Catalytic Domain = target: T12, STK3 Catalytic Domain (Homo sapiens, UniProt Q13188); settings: 2 µM protein, 10 µM inhibitor, average of 3 experiments, each in duplicate
T12 construct: For all of them, we expressed and purified the catalytic domain separately; His-tag; made in house; host or cells: Escherichia coli
T12 sequence (Q13188 27-278 limits assumed): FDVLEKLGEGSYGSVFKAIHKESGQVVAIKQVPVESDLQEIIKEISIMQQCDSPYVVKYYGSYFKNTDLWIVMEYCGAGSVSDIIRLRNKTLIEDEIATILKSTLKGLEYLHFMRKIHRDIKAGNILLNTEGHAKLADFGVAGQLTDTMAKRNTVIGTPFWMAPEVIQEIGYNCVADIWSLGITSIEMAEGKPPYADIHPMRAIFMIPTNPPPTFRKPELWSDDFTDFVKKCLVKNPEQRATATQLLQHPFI

[2] = target: T13, PAK4 Catalytic Domain+PBD (Homo sapiens, UniProt O96013); settings: 2 µM protein, 10 µM inhibitor, average of 3 experiments, each in duplicate
T13 construct: for 8, we also made a longer version containing one or more additional domains; His-tag; made in house; host or cells: Escherichia coli

[3] = target: SRC Catalytic Domain+SH2+SH3 (Homo sapiens, UniProt P12931); settings: 2 µM protein, 10 µM inhibitor, average of 3 experiments, each in duplicate
Sequence of SRC Catalytic Domain+SH2+SH3 (P12931 84-523 limits assumed): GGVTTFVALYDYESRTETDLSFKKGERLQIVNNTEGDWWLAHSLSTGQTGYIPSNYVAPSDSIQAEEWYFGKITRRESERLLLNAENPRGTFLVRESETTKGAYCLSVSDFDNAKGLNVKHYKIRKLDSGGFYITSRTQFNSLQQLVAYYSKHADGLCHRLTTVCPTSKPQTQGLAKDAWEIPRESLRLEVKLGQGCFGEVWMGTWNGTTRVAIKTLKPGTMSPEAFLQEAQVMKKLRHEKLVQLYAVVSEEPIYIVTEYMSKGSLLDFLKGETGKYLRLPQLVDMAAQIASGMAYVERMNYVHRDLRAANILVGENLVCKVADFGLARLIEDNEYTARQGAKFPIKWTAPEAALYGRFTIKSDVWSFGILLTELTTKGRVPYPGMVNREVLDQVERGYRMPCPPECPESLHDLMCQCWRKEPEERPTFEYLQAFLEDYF

T9 sequence (O96013 321-572 limits assumed): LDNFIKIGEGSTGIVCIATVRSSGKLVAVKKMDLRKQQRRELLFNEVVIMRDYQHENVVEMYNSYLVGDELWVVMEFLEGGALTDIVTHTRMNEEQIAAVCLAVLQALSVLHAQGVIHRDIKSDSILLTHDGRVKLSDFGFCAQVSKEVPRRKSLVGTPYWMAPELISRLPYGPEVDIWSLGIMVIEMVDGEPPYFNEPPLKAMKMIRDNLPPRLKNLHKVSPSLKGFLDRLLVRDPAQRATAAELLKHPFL
T10 sequence (Q9P286 449-700 limits assumed): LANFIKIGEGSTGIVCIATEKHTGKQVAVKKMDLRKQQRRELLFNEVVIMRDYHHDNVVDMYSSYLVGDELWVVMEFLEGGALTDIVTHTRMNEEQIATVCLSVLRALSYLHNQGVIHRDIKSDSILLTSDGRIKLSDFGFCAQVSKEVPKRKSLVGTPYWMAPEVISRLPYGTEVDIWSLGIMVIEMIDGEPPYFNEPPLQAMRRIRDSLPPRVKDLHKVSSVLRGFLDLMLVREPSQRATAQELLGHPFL
T4 sequence (O96017 220-486 limits assumed): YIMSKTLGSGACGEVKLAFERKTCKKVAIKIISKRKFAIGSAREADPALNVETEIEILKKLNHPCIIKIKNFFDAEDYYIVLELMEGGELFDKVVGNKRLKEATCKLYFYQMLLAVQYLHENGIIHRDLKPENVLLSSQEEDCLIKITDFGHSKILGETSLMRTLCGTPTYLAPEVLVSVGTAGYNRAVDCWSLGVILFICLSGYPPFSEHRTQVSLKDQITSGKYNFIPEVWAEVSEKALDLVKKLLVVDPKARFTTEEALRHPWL
T13 sequence (O96013 whole entry, the tested form may be a part): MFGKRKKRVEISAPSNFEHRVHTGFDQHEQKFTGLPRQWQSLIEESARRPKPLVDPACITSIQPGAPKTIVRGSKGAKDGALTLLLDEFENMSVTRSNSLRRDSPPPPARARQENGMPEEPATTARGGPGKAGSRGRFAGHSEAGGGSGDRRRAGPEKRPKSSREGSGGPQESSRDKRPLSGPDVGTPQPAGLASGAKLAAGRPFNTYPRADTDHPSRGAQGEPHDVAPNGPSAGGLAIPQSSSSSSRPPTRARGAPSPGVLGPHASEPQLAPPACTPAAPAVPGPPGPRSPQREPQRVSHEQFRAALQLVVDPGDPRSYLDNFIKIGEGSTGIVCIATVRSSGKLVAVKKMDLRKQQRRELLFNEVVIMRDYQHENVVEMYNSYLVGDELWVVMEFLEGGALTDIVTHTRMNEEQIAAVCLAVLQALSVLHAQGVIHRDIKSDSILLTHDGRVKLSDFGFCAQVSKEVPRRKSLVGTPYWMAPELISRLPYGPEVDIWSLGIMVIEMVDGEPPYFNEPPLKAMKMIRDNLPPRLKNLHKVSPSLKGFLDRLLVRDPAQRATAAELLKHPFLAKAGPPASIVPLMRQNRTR
T6 sequence (Q14289 425-683 limits assumed): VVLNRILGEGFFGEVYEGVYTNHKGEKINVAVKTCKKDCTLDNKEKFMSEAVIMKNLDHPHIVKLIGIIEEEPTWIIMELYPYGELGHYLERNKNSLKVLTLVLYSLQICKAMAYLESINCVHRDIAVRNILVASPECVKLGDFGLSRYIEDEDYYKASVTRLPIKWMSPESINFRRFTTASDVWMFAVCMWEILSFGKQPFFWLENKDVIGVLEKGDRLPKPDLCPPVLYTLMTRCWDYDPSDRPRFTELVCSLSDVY
T8 sequence (P07332 561-822 limits assumed): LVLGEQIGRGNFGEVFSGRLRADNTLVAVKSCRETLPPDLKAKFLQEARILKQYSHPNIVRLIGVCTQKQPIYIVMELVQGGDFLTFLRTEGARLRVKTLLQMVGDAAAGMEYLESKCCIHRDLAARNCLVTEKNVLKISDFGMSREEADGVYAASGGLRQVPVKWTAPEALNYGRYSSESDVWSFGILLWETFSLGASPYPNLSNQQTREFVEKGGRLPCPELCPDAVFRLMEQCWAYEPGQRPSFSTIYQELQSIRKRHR
T7 sequence (P07332 448-822 limits assumed): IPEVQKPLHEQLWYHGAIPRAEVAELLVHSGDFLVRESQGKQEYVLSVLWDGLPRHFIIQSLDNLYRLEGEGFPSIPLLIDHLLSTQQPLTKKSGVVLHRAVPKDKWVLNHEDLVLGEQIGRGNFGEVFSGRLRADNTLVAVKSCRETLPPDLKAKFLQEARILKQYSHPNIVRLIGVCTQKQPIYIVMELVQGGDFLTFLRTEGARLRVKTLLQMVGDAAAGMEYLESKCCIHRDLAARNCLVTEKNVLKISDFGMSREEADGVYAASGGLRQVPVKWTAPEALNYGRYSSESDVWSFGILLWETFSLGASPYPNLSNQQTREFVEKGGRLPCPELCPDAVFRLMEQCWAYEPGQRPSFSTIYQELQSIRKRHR
T1 sequence (Q9Y243 122-479): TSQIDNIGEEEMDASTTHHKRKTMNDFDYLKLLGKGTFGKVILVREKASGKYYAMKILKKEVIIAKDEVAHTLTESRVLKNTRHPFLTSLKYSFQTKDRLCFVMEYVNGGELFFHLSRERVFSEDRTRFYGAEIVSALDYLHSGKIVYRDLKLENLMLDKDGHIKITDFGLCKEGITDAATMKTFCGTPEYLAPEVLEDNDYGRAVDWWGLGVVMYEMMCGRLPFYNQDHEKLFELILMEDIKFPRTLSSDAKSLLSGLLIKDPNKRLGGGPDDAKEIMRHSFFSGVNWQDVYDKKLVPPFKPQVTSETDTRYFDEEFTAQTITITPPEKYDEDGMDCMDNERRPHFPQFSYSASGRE

| Structure (SMILES) | Melting temperature (Tm) shift (AKT3 Catalytic Domain) [degrees Celcius] | Melting temperature (Tm) shift (CDK2 + Cyclin A) [degrees Celcius] | Melting temperature (Tm) shift (CDK2 + Cyclin E) [degrees Celcius] | Melting temperature (Tm) shift (CHK2 Catalytic Domain) [degrees Celcius] | Melting temperature (Tm) shift (DMPK Catalytic Domain) [degrees Celcius] | Melting temperature (Tm) shift (FAK2 Catalytic Domain) [degrees Celcius] | Melting temperature (Tm) shift (FES Catalytic Domain+SH2) [degrees Celcius] | Melting temperature (Tm) shift (FES Catalytic Domain) [degrees Celcius] | Melting temperature (Tm) shift (PAK4 Catalytic Domain) [degrees Celcius] | Melting temperature (Tm) shift (PAK7 Catalytic Domain) [degrees Celcius] | Melting temperature (Tm) shift [1] [degrees Celcius] | Melting temperature (Tm) shift (STK3 Catalytic Domain) [degrees Celcius] | Melting temperature (Tm) shift [2] [degrees Celcius] | Melting temperature (Tm) shift [3] [degrees Celcius] |
| --- | --- | --- | --- | --- | --- | --- | --- | --- | --- | --- | --- | --- | --- | --- |
| O=C1NC(=O)c2c1c1c3ccccc3[nH]c1n1cncc21 [Isogranulatimide] | 2.9 | 0.1 | 0.2 | 4.5 | 0.5 | 0.8 | 0.5 | 1.6 | 0.4 | 0.2 | 1.3 | 2.6 |  |  |
| O=C1Nc2ccc(Cl)cc2C1=Cc1cc(Cl)c(O)c(Cl)c1 [PKR Inhibitor, Negative Control] |  |  | 0.6 | 3.9 | 3.2 |  | 0.5 | 0.4 | 0.9 | 0.3 | 2.1 | 1.2 | 1.5 |  |
| O=C1NC(=O)C(=Cc2ccc3c(c2)OCO3)S1 [PI 3-Kγ Inhibitor VII] | 0.0 |  | 0.1 | 0.1 | 0.3 | 0.0 |  | 0.0 |  |  |  | 0.2 |  |  |
| O=C1c2ccccc2-c2n[nH]c3cccc1c23 [JNK Inhibitor II] | 0.1 | 1.2 | 0.3 | 5.2 | 1.4 | 1.0 | 0.9 | 2.6 | 1.1 | 0.7 | 1.3 | 2.0 | 1.0 |  |
| O=c1c(O)c(-c2ccc(O)c(O)c2)oc2cc(O)c(O)c(O)c12 [Quercetagetin] | 2.5 | 0.2 | 0.7 | 1.1 |  | 0.2 | 0.1 | 0.1 | 0.0 | 0.1 | 0.5 | 0.2 | 0.3 | 0.0 |
| O=C1c2ccccc2-c2nc3nnnn3nc21 [PDK1/Akt/Flt Dual Pathway Inhibitor] | 3.1 | 0.1 | 0.4 | 0.6 |  |  |  | 0.0 |  |  | 0.0 |  |  |  |
| CC(C)n1cnc2c(NCc3ccccc3O)nc(NCCCO)nc21 [Cdk Inhibitor, p35] |  | 3.6 | 2.0 | 0.8 | 0.3 | 0.0 | 0.2 | 1.1 | 1.4 | 1.1 | 0.4 | 0.3 | 3.9 |  |
| CCN1/C(=C/C(C)=O)Sc2ccc(OC)cc21 [Cdc2-Like Kinase Inhibitor, TG003] |  | 0.0 | 0.0 | 0.0 | 0.2 | 0.1 |  | 0.0 |  | 0.0 |  | 0.0 |  |  |
| CC(C)c1nn(-c2c(Cl)cccc2Cl)c2nc(Cc3ccc(OCCO)cc3)[nH]c(=O)c12 [Cdk/Crk Inhibitor] | 0.0 | 7.5 | 5.5 | 0.6 | 1.3 | 0.5 | 0.1 | 0.6 | 1.9 | 2.0 | 0.2 | 0.8 | 1.1 |  |
| CC(C)(C)c1nc2c3cc[nH]c(=O)c3c3cc(F)ccc3c2[nH]1 [JAK Inhibitor I] |  | 0.0 | 0.0 | 8.8 |  | 3.0 | 0.1 | 0.1 | 0.2 | 0.2 | 3.2 | 2.1 | 0.2 |  |
| O=C1NC(=O)c2c1c1c3ccccc3[nH]c1c1[nH]c3cc(Br)ccc3c21 [Cdk4 Inhibitor] |  |  | 0.7 |  | 0.8 |  |  |  | 0.7 |  |  |  | 0.4 |  |
